Measurements reported in patent US20260216348A1, “IRAK DEGRADATION AGENT AND USE THEREOF” (Increland, priority 2023, published 2026).

How the values were obtained:
[1] = tested on: LPS/IL-1β-induced IL-6 secretion in human peripheral blood mononuclear cells (PBMCs); assay: Inhibition of LPS/IL-1β-induced IL-6 secretion in human PBMCs (IL-6 ELISA); assay type: cell-based; conditions: PBMC, LPS 10 ng/mL + IL-1β 20 ng/mL, 24 h pre-incubation, 20 h stimulation
Method: This experiment was carried out in RPMI 1640 medium containing 10% FBS and 1% penicillin/streptomycin, with each of the compounds at an initial test concentration of 1 μM.
The compound was dissolved in DMSO to prepare a stock solution, which was serially diluted into some working solutions with a 5-fold concentration gradient using the culture medium and then added to a 96-well plate at 10 μL per well. PBMCs (Batch No.: P122101102C; Milecell Biotechnology Inc.) were counted and diluted to a cell concentration of about 1.3×10^6 cells/mL, and then added to the aforementioned compound-containing 96-well plate at 150 μL per well. The system was mixed well and incubated in a 5% CO2 incubator at 37° C. for 24 h. Then 5 μL of LPS (final concentration: 10 ng/mL) and 5 μL of IL-1β (final concentration: 20 ng/mL) were added to each well, respectively, and the culture was continued for 20 h in a 5% CO2 incubator at 37° C. After incubation, the 96-well plate was centrifuged at 2000 rpm for 4 min. The supernatant was collected and diluted 200-fold, then detected using an IL-6 ELISA kit. The OD450 values were read, and converted to IL-6 concentrations based on a standard curve. The dose-response curves were fitted using GraphPad 8.0 to calculate the IC50 values.

IRAK4 = target: T1, IRAK4 (Homo sapiens, UniProt Q9NWZ3); assay: IRAK4 protein degradation in THP1 cells (Western blot); assay type: cell-based; conditions: THP-1 cells, 24 h
T1 construct: Effect of the Compounds on IRAK4 Protein Degradation in THP1 Cells; endogenous in cells; host or cells: THP-1 cells
T1 sequence (Q9NWZ3 1-460): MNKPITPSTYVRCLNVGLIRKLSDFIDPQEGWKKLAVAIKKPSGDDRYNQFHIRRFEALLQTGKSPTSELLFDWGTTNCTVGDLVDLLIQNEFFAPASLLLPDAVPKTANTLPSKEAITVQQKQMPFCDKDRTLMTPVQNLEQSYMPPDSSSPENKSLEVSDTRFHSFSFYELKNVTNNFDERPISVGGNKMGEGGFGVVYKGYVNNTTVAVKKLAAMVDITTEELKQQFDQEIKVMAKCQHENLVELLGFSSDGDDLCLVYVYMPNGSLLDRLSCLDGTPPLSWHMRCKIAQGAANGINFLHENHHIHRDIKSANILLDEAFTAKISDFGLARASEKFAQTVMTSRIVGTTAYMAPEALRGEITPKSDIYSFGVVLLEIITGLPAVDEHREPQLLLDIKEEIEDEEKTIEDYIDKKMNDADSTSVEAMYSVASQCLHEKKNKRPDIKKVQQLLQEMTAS
Method: THP-1 cells were seeded into a 96-well cell culture plate, with 2×10^5 cells and 90 μL of culture medium per well. The cell culture plate was cultured in an incubator with 5% CO2 at 37° C. overnight. The compound was dissolved in DMSO to prepare a stock solution, which was serially diluted into a series of working solutions with a 5-fold concentration gradient using the culture medium and then added to the aforementioned 96-well plate at 10 μL per well. The cell culture plate was further incubated for 24 h in a 5% CO2 incubator at 37° C. After incubation, the 96-well plate was centrifuged and the supernatant was discarded, followed by adding 40 μL of cell lysis buffer containing […]/phosphatase inhibitors to each well for sufficient lysis on an ice bath. Protein quantification was performed using the BCA protein quantification kit, followed by the preparation of Western blot samples. […] After electrophoresis, protein transfer was performed using a PVDF membrane under ice bath conditions for 1 h. After the transfer was completed, the PVDF membrane was blocked with gentle shaking in 5% skim milk at room temperature for 1 h. After blocking, the PVDF membrane was incubated with the primary antibody overnight with gentle shaking at 4° C. The PVDF membrane was washed 3 times with TBST, then the secondary antibody was added and incubated for 1 h with gentle shaking at room temperature, followed by washing of the PVDF membrane with TBST for 3 times. After the washes were completed, the chemiluminescent substrate was added; the PVDF membrane was scanned using a Clinx imager, semi-quantitative analysis was performed with ImageJ software, and the DC50 was calculated using GraphPad Prism 8.0.

Row | DC50 (IRAK4) [nM] | SMILES | IC50 [1] [nM]
1 | < 1 | CN(C)c1cc2nn([C@H]3CC[C@H](CN4CC[C@@H](n5cc6cc(F)c(C7CCC(=O)NC7=O)cc6n5)[C@@H](F)C4)CC3)cc2cc1NC(=O)c1cnn2cccnc12 (stereo partly shown) [TM-139] | 4.35
2 | 1.2 | CN(C)c1cc2nn([C@H]3CC[C@H](CN4CC[C@H](n5cc6cc(N7CCC(=O)NC7=O)ccc6n5)[C@H](F)C4)CC3)cc2cc1NC(=O)c1cnn2cccnc12 [TM-18] | 3.72
3 | 4.62 | CN(C)c1cc2nn(C3CCN(C[C@H]4CC[C@H](n5cc6ccc(C7CCC(=O)NC7=O)cc6n5)CC4)CC3)cc2cc1NC(=O)c1cnn2cccnc12 (stereo partly shown) [TM-5] | 0.26
4 | 9.64 | CN(C)c1cc2nn([C@H]3CC[C@H](CN4CCCN(c5nc6cc(N7CCC(=O)NC7=O)ccc6s5)CC4)CC3)cc2cc1NC(=O)c1cnn2cccnc12 [TM-59] | 10.9
5 | 0.32 | CN(C)c1cc2nn([C@H]3CC[C@H](CN4CC[C@@H](n5cc6cc(C7CCC(=O)NC7=O)ccc6n5)[C@@H](F)C4)CC3)cc2cc1NC(=O)c1cnn2cccnc12 (stereo partly shown) [TM-156] | 1.17
6 | 4.27 | C[C@H]1CN(C[C@H]2CC[C@H](n3cc4cc(NC(=O)c5cnn6cccnc56)c(N(C)C)cc4n3)CC2)CC[C@@H]1n1cc2ccc(N3CCC(=O)NC3=O)cc2n1 [TM-27] | 1.49
7 | 135 | CN(C)c1cc2nn([C@H]3CC[C@H](CN4CCC(N5Cc6ccc(N7CCC(=O)NC7=O)cc6C5=O)CC4)CC3)cc2cc1NC(=O)c1cnn2cccnc12 [TM-143] | 11.9
8 | 0.79 | CN(C)c1cc2nn([C@H]3CC[C@H](CN4CC[C@H](n5cc6ccc(C7CCC(=O)NC7=O)cc6n5)[C@H](F)C4)CC3)cc2cc1NC(=O)c1cnn2cccnc12 (stereo partly shown) [TM-153] | 6.79
9 | 3.82 | CN(C)c1cc2nn([C@H]3CC[C@H](CN4C[C@@H]5[C@H](C4)[C@H]5n4cc5ccc(N6CCC(=O)NC6=O)cc5n4)CC3)cc2cc1NC(=O)c1cnn2cccnc12 [TM-182] | 
10 | 0.31 | CN(C)c1cc2nn([C@H]3CC[C@H](CN4CC[C@H](n5cc6cc(C7CCC(=O)NC7=O)ccc6n5)[C@H](F)C4)CC3)cc2cc1NC(=O)c1cnn2cccnc12 (stereo partly shown) [TM-155] | 1
11 | 18.1 | CN(C)c1cc2nn([C@H]3CC[C@H](CN4CC5(CCN(c6nc7ccc(C8CCC(=O)NC8=O)cn7n6)CC5)C4)CC3)cc2cc1NC(=O)c1cnn2cccnc12 (stereo partly shown) [TM-251] | 2.19
12 | < 1 | CN(C)c1cc2nn([C@H]3CC[C@H](CN4CC[C@@H](n5cc6cc(N7CCC(=O)NC7=O)c(F)cc6n5)[C@H](F)C4)CC3)cc2cc1NC(=O)c1cnn2cccnc12 [TM-41] | 3.89
13 | 1.21 | CN(C)c1cc2nn([C@H]3CC[C@H](CN4CC[C@H](F)[C@@H](n5cc6cc(N7CCC(=O)NC7=O)ccc6n5)C4)CC3)cc2cc1NC(=O)c1cnn2cccnc12 [TM-214] | 
14 | 1.4 | CN(C)c1cc2nn([C@H]3CC[C@H](CN4CC[C@H](n5cc6ccc(N7CCC(=O)NC7=O)cc6n5)[C@H](F)C4)CC3)cc2cc1NC(=O)c1cnn2cccnc12 [TM-32] | 1.21
15 | 19.9 | CN(C)c1cc2nn([C@H]3CC[C@H](CN4CC5(CCN(c6nc7ccc(N8CCC(=O)NC8=O)cc7s6)CC5)C4)CC3)cc2cc1NC(=O)c1cnn2cccnc12 [TM-67] | 4.01
16 | 4.33 | CN(C)c1cc2nn([C@H]3CC[C@H](CN4CCC5(CC4)C[C@@H](n4cc6cc(C7CCC(=O)NC7=O)c(F)cc6n4)CO5)CC3)cc2cc1NC(=O)c1cnn2cccnc12 (stereo partly shown) [TM-141] | 4.49
17 | 3.73 | CN(C)c1cc2nn(C3CCN(C[C@H]4CC[C@H](n5cc6cc(C7CCC(=O)NC7=O)ccc6n5)CC4)CC3)cc2cc1NC(=O)c1cnn2cccnc12 (stereo partly shown) [TM-7] | 0.18

Row | DC50 (IRAK4) [nM] | SMILES | IC50 [1] [nM]
18 | 13.9 | CN(C)c1cc2nn([C@H]3CC[C@H](CN4CCC5(CC4)C[C@@H](n4cc6cc(F)c(C7CCC(=O)NC7=O)cc6n4)CO5)CC3)cc2cc1NC(=O)c1cnn2cccnc12 (stereo partly shown) [TM-140] | 
19 | 0.95 | CN(C)c1cc2nn([C@H]3CC[C@H](CN4CC5(CC(n6cc7ccc(N8CCC(=O)NC8=O)cc7n6)C5)C4)CC3)cc2cc1NC(=O)c1cnn2cccnc12 [TM-215] | 
20 | 1.13 | CN(C)c1cc2nn([C@H]3CC[C@H](CN4CC[C@@H](n5cc6ccc(N7CCC(=O)NC7=O)cc6n5)[C@@H](F)C4)CC3)cc2cc1NC(=O)c1cnn2cccnc12 [TM-29] | 0.88
21 | 23.3 | CN(C)c1cc2nn(C3CCN(C[C@H]4CC[C@H](n5cc6cc(N7CCC(=O)NC7=O)c(F)cc6n5)CC4)CC3)cc2cc1NC(=O)c1cnn2cccnc12 [TM-51] | 3.14
22 | 4.31 | O=C1CCN(c2ccc3cn(C4CCN(C[C@H]5CC[C@H](n6cc7cc(NC(=O)c8cnn9cccnc89)c(N8CCOCC8)cc7n6)CC5)CC4)nc3c2)C(=O)N1 [TM-43] | 8.92
23 | 0.81 | CN(C)c1cc2nn([C@H]3CC[C@H](CN4CC[C@H](n5cc6cc(N7CCC(=O)NC7=O)c(F)cc6n5)[C@@H](F)C4)CC3)cc2cc1NC(=O)c1cnn2cccnc12 [TM-131] | 5.07
24 | 0.98 | CN(C)c1cc2nn([C@H]3CC[C@H](CN4CCC(c5nc6ccc(N7CCC(=O)NC7=O)cc6o5)CC4)CC3)cc2cc1NC(=O)c1cnn2cccnc12 [TM-186] | 
25 | 1.58 | CO[C@H]1CN(C[C@H]2CC[C@H](n3cc4cc(NC(=O)c5cnn6cccnc56)c(N(C)C)cc4n3)CC2)CC[C@@H]1n1cc2ccc(C3CCC(=O)NC3=O)cc2n1 (stereo partly shown) [TM-166] | 0.89
26 | 11 | CN(C)c1cc2nn([C@H]3CC[C@H](CN4CCC(c5nc6cc(C7CCC(=O)NC7=O)c(F)cc6o5)CC4)CC3)cc2cc1NC(=O)c1cnn2cccnc12 (stereo partly shown) [TM-147] | 
27 | 1.41 | CN(C)c1cc2nn([C@H]3CC[C@H](CN4CC[C@H](n5cc6cc(F)c(C7CCC(=O)NC7=O)cc6n5)[C@@H](F)C4)CC3)cc2cc1C(=O)Nc1cnn2cccnc12 (stereo partly shown) [TM-158] | 14.6
28 | 1.27 | CN(C)c1cc2nn([C@H]3CC[C@H](CN4CC[C@@H](n5cc6ccc(C7CCC(=O)NC7=O)cc6n5)[C@@H](F)C4)CC3)cc2cc1NC(=O)c1cnn2cccnc12 (stereo partly shown) [TM-154] | 1.45
29 | 1.19 | CN(C)c1cc2nn([C@H]3CC[C@H](CN4CC[C@H](n5cc6cc(N7CCC(=O)NC7=O)ccc6n5)[C@@H](F)C4)CC3)cc2cc1NC(=O)c1cnn2cccnc12 [TM-17] | 3.37
30 | 1.79 | CN(C)c1cc2nn([C@H]3CC[C@H](CN4C[C@@H](F)[C@H](n5cc6ccc(N7CCC(=O)NC7=O)cc6n5)C4)CC3)cc2cc1NC(=O)c1cnn2cccnc12 [TM-200] | 
31 | 0.41 | CN(C)c1cc2nn([C@H]3CC[C@H](CN4CC[C@@H](n5cc6cc(N7CCC(=O)NC7=O)ccc6n5)[C@H](F)C4)CC3)cc2cc1NC(=O)c1cnn2cccnc12 [TM-16] | 4.59
32 | 4.26 | CN(C)c1cc2nn([C@H]3CC[C@H](CN4CC[C@H](n5cc6cc(N7CCC(=O)NC7=O)c(F)cc6n5)[C@H](F)C4)CC3)cc2cc1NC(=O)c1cnn2cccnc12 [TM-130] | 5.12
33 | 1.12 | C[C@H]1CN(C[C@H]2CC[C@H](n3cc4cc(NC(=O)c5cnn6cccnc56)c(N(C)C)cc4n3)CC2)CC[C@@H]1n1cc2ccc(C3CCC(=O)NC3=O)cc2n1 (stereo partly shown) [TM-157] | 1.46
34 | 1.41 | CN(C)c1cc2nn([C@H]3CC[C@H](CN4CC[C@@H](n5cc6cc(N7CCC(=O)NC7=O)ccc6n5)[C@@H](F)C4)CC3)cc2cc1NC(=O)c1cnn2cccnc12 [TM-15] | 4
